Data on 13 compounds can be found in publication PMC9851200, “Multiparameter phenotypic screening for endogenous TFEB and TFE3 translocation identifies novel chemical series modulating lysosome function” (Autophagy, 2022).

Each structure is given as a SMILES string. Like-named read-outs stand apart in the source and are kept apart here.

One data set deals with endogenous TFEB. In words: TFEB nuclear translocation, immunocytochemistry high-content imaging. The data set is classed as cell-based.
The subject of the next data set is endogenous TFE3. The data set can be described thus: TFE3 nuclear translocation, immunocytochemistry high-content imaging. The data set is classed as cell-based.
Data set [1] has as its system SH-SY5Y cells.
Excerpt: The PKIS2 Library was supplied by The Structural Genomics Consortium at the University of North Carolina at Chapel Hill.
The test system of data set [2] is SH-SY5Y cells. In words: AK (adenylate kinase) release ToxiLight cytotoxicity assay. Note: reference of the scale not given here.
The subject of data set [3] is SH-SY5Y cells. In words: Nuclear count from microscopy images (cellular growth and toxicity). Note: reference of the scale not given here.
The mark [4] stands for this setting: PKIS2 primary screening, DQ Red BSA intensity.
Setting [5] is: PKIS2 primary screening, DQ Red BSA spot count.
Throughout, for DQ Intensity: reference of the scale not given here.
Throughout, for DQ Spot: reference of the scale not given here.

`COc1ccccc1CNC(=O)c1cc(C(=O)c2ccccc2C)c[nH]1` [UNC10225294A] gave a TFEB % in the data set with endogenous TFEB (PKIS2 primary screen) of 4.46%. Moreover, the TFE3 % in the data set with endogenous TFE3 (PKIS2 primary screen) was found to be 19.95%. In the data set with SH-SY5Y cells [1] (PKIS2 primary screen, DQ Red BSA intensity), the “DQ Intensity” value was determined as 126.95. Further, the “DQ Spot” value with SH-SY5Y cells [1] (PKIS2 primary screen, DQ Red BSA spot count) stood at 127.30. This compound also returned an AK with SH-SY5Y cells [2] (PKIS2 primary screen) of 95.17. In addition, the “Nuclear Count” value in the data set on SH-SY5Y cells [3] (PKIS2 primary screen) is listed as 105.84.

In the data set with endogenous TFEB (PKIS2 primary screening), `O=C(NCCNc1ccnc(Nc2ccc(F)cc2)n1)Nc1ccc2c(c1)OCO2` [GSK1379882] showed a TFEB % of 4.46%. This compound registered a TFE3 % in the data set on endogenous TFE3 (PKIS2 primary screening) of 17.40%. Moreover, the “DQ Intensity” value in the data set on SH-SY5Y cells [1] (setting [4]) worked out at 52.40. Also, in the data set with SH-SY5Y cells [1] (setting [5]), the “DQ Spot” value came out at 79.77. Further, in the data set on SH-SY5Y cells [2] (PKIS2 primary screening), the AK is listed as 105.11. In the data set with SH-SY5Y cells [3] (PKIS2 primary screening), the “Nuclear Count” value is 67.71.

On to `Cc1ccc(NC(=O)Nc2cccc(Cl)c2)cc1-c1ccc(C(=O)Nc2ccncc2)cc1` [UNC10225019A], for which, in the data set with endogenous TFEB (PKIS2 primary screening), the TFEB % is 7.29%. In the data set with endogenous TFE3 (PKIS2 primary screening), this compound returned a TFE3 % of 11.19%. For the same compound, in the data set on SH-SY5Y cells [1] (PKIS2 primary screening), the “DQ Intensity” value is 128.25 and the “DQ Spot” value worked out at 121.60. The AK with SH-SY5Y cells [2] (PKIS2 primary screening) is reported as 95.29. For the same compound, the “Nuclear Count” value in the data set on SH-SY5Y cells [3] (PKIS2 primary screening) stood at 106.82.

Consider `CCC(CC)(CC)n1cnc2c(N)ncnc21` [UNC10225302A], for which, in the data set on endogenous TFEB (PKIS2 primary screening), the TFEB % is given as 11.64%. In the data set on endogenous TFE3 (PKIS2 primary screening), this compound had a TFE3 % of 9.37%. For the same compound, in the data set with SH-SY5Y cells [1] (PKIS2 primary screening), the “DQ Intensity” value amounted to 92.29 and the “DQ Spot” value came out at 100.17. Moreover, the AK with SH-SY5Y cells [2] (PKIS2 primary screening) is reported as 115.78. In addition, the “Nuclear Count” value in the data set with SH-SY5Y cells [3] (PKIS2 primary screening) was 100.18.

In turn, `Cc1cn2c(=O)cc(N3CCOCC3)nc2n1Cc1cccc(Cl)c1Cl` [UNC10225415A] gave a TFEB % with endogenous TFEB (PKIS2 primary screening) of 6.30%. In the data set with endogenous TFE3 (PKIS2 primary screening), this compound registered a TFE3 % of 10.27%. Further, in the data set on SH-SY5Y cells [1] (PKIS2 primary screening), the “DQ Intensity” value stood at 62.82 and the “DQ Spot” value is 98.81. The AK in the data set with SH-SY5Y cells [2] (PKIS2 primary screening) came out at 43.75. Further, the “Nuclear Count” value in the data set with SH-SY5Y cells [3] (PKIS2 primary screening) stood at 117.08.

In the data set with endogenous TFEB (PKIS2 primary screening), `COc1cc2ncn(-c3cc(OCc4ccncc4Br)c(C(N)=O)s3)c2cc1OC` [UNC10225386A] gave a TFEB % of 6.47%. Further, the TFE3 % in the data set on endogenous TFE3 (PKIS2 primary screening) worked out at 3.25%. For the same compound, in the data set with SH-SY5Y cells [1] (PKIS2 primary screening), the “DQ Intensity” value stood at 93.85 and the “DQ Spot” value came out at 100.07. For the same compound, the AK in the data set on SH-SY5Y cells [2] (PKIS2 primary screening) turned out to be 64.35. The “Nuclear Count” value in the data set with SH-SY5Y cells [3] (PKIS2 primary screening) is 97.54.

`Cc1ccc(Nc2ccnc(Nc3ccc(C)c(F)c3)n2)cc1O` [GW582868] displayed a TFEB % in the data set with endogenous TFEB (PKIS2 primary screening) of 8.86%. In the data set on endogenous TFE3 (PKIS2 primary screening), this compound gave a TFE3 % of 12.77%. Moreover, the “DQ Intensity” value with SH-SY5Y cells [1] (setting [4]) was 80.99. In the data set on SH-SY5Y cells [1] (setting [5]), the “DQ Spot” value is reported as 94.80. The same compound yielded an AK in the data set with SH-SY5Y cells [2] (PKIS2 primary screening) of 95.37. The “Nuclear Count” value with SH-SY5Y cells [3] (PKIS2 primary screening) was found to be 87.67.

For `COc1ccc(NC(=O)c2ccoc2)cc1-c1ccc(C(=O)NCC2CC2)cc1` [UNC10225046A], the TFEB % in the data set on endogenous TFEB (PKIS2 primary screening) turned out to be 6.55%. The TFE3 % in the data set on endogenous TFE3 (PKIS2 primary screening) came out at 9.04%. In the data set on SH-SY5Y cells [1] (PKIS2 primary screening), the “DQ Intensity” value is given as 103.40 and the “DQ Spot” value was 103.73. The same compound showed an AK with SH-SY5Y cells [2] (PKIS2 primary screening) of 86.14. The “Nuclear Count” value in the data set with SH-SY5Y cells [3] (PKIS2 primary screening) stood at 104.87.

Compound `COC(=O)c1cccc(NC(=O)NCCNc2ccnc(Nc3ccc(F)cc3)n2)c1` [GSK1379883] gave a TFEB % in the data set on endogenous TFEB (PKIS2 primary screening) of 8.27%. Besides, the TFE3 % in the data set with endogenous TFE3 (PKIS2 primary screening) stood at 3.78%. Further, the “DQ Intensity” value with SH-SY5Y cells [1] (setting [4]) was 102.62. The “DQ Spot” value with SH-SY5Y cells [1] (setting [5]) was determined as 95.44. This compound also displayed an AK with SH-SY5Y cells [2] (PKIS2 primary screening) of 105.04. Further, the “Nuclear Count” value with SH-SY5Y cells [3] (PKIS2 primary screening) stood at 115.63.

`Cl.c1ccc(Cn2ncc3cc(Nc4ncnc5ccccc45)ccc32)cc1` [UNC10225085A] had a TFEB % in the data set on endogenous TFEB (PKIS2 primary screening) of 4.60%. This compound also had a TFE3 % in the data set on endogenous TFE3 (PKIS2 primary screening) of 11.00%. In addition, the “DQ Intensity” value in the data set on SH-SY5Y cells [1] (setting [4]) is 91.33. In addition, in the data set on SH-SY5Y cells [1] (setting [5]), the “DQ Spot” value is reported as 107.62. The AK with SH-SY5Y cells [2] (PKIS2 primary screening) is reported as 124.83. Also, in the data set with SH-SY5Y cells [3] (PKIS2 primary screening), the “Nuclear Count” value came to 82.39.

Compound `CCn1c(-c2nonc2N)nc2c(C#CC(C)(C)O)nc(OCCN)cc21.Cl.Cl` [UNC10225460A] yielded a TFEB % in the data set on endogenous TFEB (PKIS2 primary screening) of 9.06%. The same compound registered a TFE3 % with endogenous TFE3 (PKIS2 primary screening) of 15.40%. Moreover, in the data set with SH-SY5Y cells [1] (PKIS2 primary screening), the “DQ Intensity” value is 74.51 and the “DQ Spot” value is reported as 103.98. The compound further had an AK with SH-SY5Y cells [2] (PKIS2 primary screening) of 78.09. In the data set with SH-SY5Y cells [3] (PKIS2 primary screening), the “Nuclear Count” value was determined as 55.94.

In turn, `COc1cc(Nc2nccc(N3CCC(NC(=O)Nc4cc(C)ccc4C)C3)n2)cc(OC)c1OC` (stereo not drawn) [GSK1379762] returned a TFEB % in the data set with endogenous TFEB (PKIS2 primary screening) of 7.03%. Further, in the data set on endogenous TFE3 (PKIS2 primary screening), the TFE3 % was 14.40%. In addition, the “DQ Intensity” value in the data set with SH-SY5Y cells [1] (setting [4]) is 110.39. In addition, the “DQ Spot” value in the data set on SH-SY5Y cells [1] (setting [5]) was found to be 96.86. For the same compound, the AK in the data set on SH-SY5Y cells [2] (PKIS2 primary screening) is 74.55. The “Nuclear Count” value in the data set with SH-SY5Y cells [3] (PKIS2 primary screening) is 111.04.

In turn, `NC(=O)Nc1sc(-c2ccc(F)cc2)cc1C(N)=O` [UNC10225118A] showed a TFEB % with endogenous TFEB (PKIS2 primary screening) of 7.01%. The compound also gave a TFE3 % with endogenous TFE3 (PKIS2 primary screening) of 11.46%. Besides, in the data set on SH-SY5Y cells [1] (PKIS2 primary screening), the “DQ Intensity” value stood at 77.43 and the “DQ Spot” value worked out at 92.26. Also, the AK with SH-SY5Y cells [2] (PKIS2 primary screening) came out at 76.60. Further, the “Nuclear Count” value in the data set on SH-SY5Y cells [3] (PKIS2 primary screening) was 81.29.
